According to patent US20030216569A1, “Method of making HIV protease inhibitors” (priority 1993, published 2003):
Values after ≈ are worked out from the molar mass of the structure shown.

Columns and labels:
[1] = tested on: HIV-1 isolates IIIB and/or RF in CEM cells; test: SRI primary anti-HIV screen, MTT assay of inhibition of HIV-induced cell killing in CEM cells; assay type: cell-based; settings: for IC50: Human immunodeficiency virus 1, IIIB, CCRF-CEM, read-out: SRI CEM IC50 ng/mL, CEM cells; for SRI CEM IC50: CEM cells
Procedure: (§1) A. Principle of MTT Assay:
This assay involves the conversion of the tetrazolium dye MTT to a colored formazan product by mitochondrial enzymes in metabolically active cells. This assay system is used at SRI to screen over 30,000 compounds per year. Briefly, the assay involves the infection of CEM or MT2 cells in round bottom 96-well plates. The compound of interest is added just prior to infection. Following 6 days of incubation at 37° C. the plates are stained with MTT. The results of the assay are quantitated spectrophotometrically on a Molecular Devices Vmax plate reader. The data are analyzed by linear regression utilizing an in-house software program to calculate antiviral activity (IC25, IC50, IC95) and toxicity (TC25, TC50, TC95) as well as other values.
(§2) Primary antiviral assays are routinely performed in CEM or MT-2 cells.
(§3) B. Standard Screening Assays in CEM and MT-2 Cells
(§4) 1. Compound dilution and delivery to the plates
(§5) Drugs are solubilized in the appropriate vehicle such as distilled water or DMSO if necessary. Latex gloves, lab coats and masks are used during all phases of the handling process to prevent exposure to potentially harmful agents. The drug is prepared at the appropriate concentration and stored at −20° C. until used by the screening laboratory. The first dilution of each compound is made in a dilution tube with medium to yield a concentration two-fold that of the highest test concentration. Sterile titer tubes are then used to make serial one half-log dilutions of each compound. Following drug dilution, the diluted compound is added to the appropriate well of a 96-well microtiter plate. Up to 12 dilutions can be assayed conveniently in triplicate on a single plate with all appropriate controls including cell control, virus control, toxicity control, drug color control, medium control and plastic (background) control. When testing includes only six dilutions, two drugs can be assayed on a single microtiter plate. The drugs are added to the plate in a final volume of 100 microliters.
(§6) During the time the drug dilutions are prepared, cells are washed and counted. Viability is monitored by trypan blue dye exclusion and assays are not performed if the viability falls below 90%. Cells are maintained in an exponential growth phase and are split 1:2 on the day prior to assay to assure exponential growth rate.
(§7) For the primary screen, the cell lines utilized are CEM and MT-2. Unless otherwise indicated, the medium used is RPMI 1640 with 10% heat-inactivated fetal calf serum (FBS), glutamine and antibiotics.
(§8) Cells are propagated at 37° C. in an atmosphere of 5% CO2 in air. The virus employed for this work is HIV-1 isolates IIIB and/or RF, which are prepared by an acute infection process.
(§9) Briefly, virus-infected cells are pelleted on a daily basis beginning at three days post-infection until the virus has killed all of the cells in the culture. Reverse transcriptase activity and p24 ELISA are used to identify pools with the greatest amout of virus.
(§10) These 24-hour harvests are pooled, filtered and frozen at −90° C. Prior to use in the assay, the infectious pool of virus is titered on all available cell lines in order to determine the amount of virus required in the antiviral assay.
(§11) In general, pools produced by the acute infection method require the addition of one microliter of infectious virus per well resulting in the screening of drugs at a multiplicity of infection of 0.01. In this manner, enough virus is prepared and frozen to complete over one thousand microtiter plates, allowing the testing of up to two thousand compounds from a single stock of infectious virus.
Virus infection of the CEM and MT-2 cells for the antiviral assay is carried out in a bulk infection process.

[2] = tested on: HIV-1 isolates IIIB and/or RF in MT-2 cells; test: SRI primary anti-HIV screen, MTT assay of inhibition of HIV-induced cell killing in MT2 cells; assay type: cell-based; settings: for IC50: Human immunodeficiency virus 1, IIIB, MT2, read-out: SRI MT2 IC50 ng/ml, MT2 cells; for SRI MT2 IC50: MT2 cells
Description: I. Primary Drug Screening of Anti-HIV Compounds at Southern Research Institute (SRI) (Results recorded in Table 1 are designated “SRI CEM (ng/ml)” or “SRI MT2 (ng/ml)”)
as §1
SRI has an established program for the primary antiviral analysis of compounds in microtiter assays which measures the ability of a selected compound to inhibit HIV-induced cell killing. This assay involves the conversion of the tetrazolium dye MTT to a colored formazan product by mitochondrial enzymes in metabolically active cells. This assay system is used at SRI to screen over 30,000 compounds per year. Briefly, the assay involves the infection of CEM or MT2 cells in round bottom 96-well plates. The compound of interest is added just prior to infection. Following 6 days of incubation at 37° C. the plates are stained with MTT. The results of the assay are quantitated spectrophotometrically on a Molecular Devices Vmax plate reader. The data are analyzed by linear regression utilizing an in-house software program to calculate antiviral activity (IC25, IC50, IC95) and toxicity (TC25, TC50, TC95) as well as other values.
as §2, §3, §4
as §5, with “Up to 12 dilutions can be assayed conveniently in triplicate on a single plate with all appropriate controls including cell control, virus control, toxicity control, drug color control, medium control and plastic (background) control.” left out
as §6, §7, §8, §9, §10
as §11, with “virus. The use of a single stock of virus for a long period of testing has very favorable effects on the repeatability of the assay systems. […]” for “virus.”

What does the source list for `CCCCc1c(O)cccc1C(=O)NC(Cc1ccccc1)C(O)CN1CC2CCCCC2CC1C(=O)NC(C)(C)C` (stereo not drawn) [Example 21, [3S-(3R*,4aR*,8aR*,2′S*,3′R*)]-2-[2′-Hydroxy-3′-phenylmethyl-4′-aza-5′-oxo-5′-(2″-butyl-3′″-hydroxyphenyl)pentyl] decahydroisoquinoline-3-N-t-butylcarboxamide]?
IC50 [1]: 443 ng/mL (≈ 0.767 µM); IC50 [2]: 427 ng/mL (≈ 0.739 µM)

Which results are given for `CCc1c(O)cccc1C(=O)NC(Cc1ccccc1)C(O)CN1CC2CCCCC2CC1C(=O)NC(C)(C)C` (stereo not drawn) [Example 3, [3S-(3R*,4aR*,8aR*,2′S*,3′R*)]-2-[2′-Hydroxy-3′-phenylmethyl-4′-aza-5′-oxo-5′-(2″-ethyl-3″-hydroxyphenyl)pentyl] decahydroisoguinoline-3-N-t-butylcarboxamide]?
SRI CEM IC50 [1]: 0.0113 µg/mL; IC50 [1]: 15.2 ng/mL (≈ 0.0276 µM); IC50 [2]: 21.3 ng/mL (≈ 0.0387 µM); SRI MT2 IC50 [2]: 0.0215 µg/mL

How did the “SRI CEM IC50” value [1] turn out when `CC(C)(C)NC(=O)C1CC2CCCCC2CN1CC(O)C(Cc1ccccc1)NC(=O)c1cccc(O)c1Cl` (stereo not drawn) [Example 11, [3S-(3R*,4aR*,8aR*,2′S*,3′R*)]-2-[2′-Hydroxy-3′-phenylmethyl-4′-aza-5′-oxo-5′-(2″-chloro-3″-hydroxyphenyl)pentyl] decahydroisoquinoline-3-N-t-butylcarboxamide] was run?
Its value is 0.338 µg/mL.

And the IC50 [1]?
The IC50 was 420 ng/mL (≈ 0.755 µM).

What about the IC50 [2] of the same compound?
Its IC50 is 649 ng/mL (≈ 1.17 µM).

What about the “SRI MT2 IC50” value [2] of the same compound?
The value was 0.387 µg/mL.
